Assay results published in US20080280890A1, “HYDROXYLAMINE COMPOUNDS AND METHODS OF THEIR USE” (priority 2007, published 2008).
Several values for one entry are separate records, joined by “and”; a condition that tells them apart may be missing. Equal values may be shown once. Read-outs that look alike come from different tables or passages of the source.

Tests used:
TNF-alpha = test: LPS induced TNF-alpha inhibition (whole blood / THP-1 cells, ELISA); assay type: cell-based, human
Experimental: Following incubation with LPS, PBS was added (800 uL) and samples were spun for 10 minutes at 1500 g. […] TNFα protein concentrations were measured using R&D Systems high sensitivity ELISA kit.
The lipid peroxidation assay method of Ohkawa, H.; Ohishi, N.; Yaki, K. Anal. Biochem. 1979, 95, 351 was used to evaluate TNF α. […] Cells were induced with 25 ng/mL LPS for another 3 hrs. Cells were collected and spun at 1500 g for 10 minutes. Supernatant was collected and analyzed for TNFα.
OT-551 was used in both native form and in the form of nanoparticles. […] Other nitrogenous heterocyclic species of the invention are expected to show similar improvement in efficacy when disposed in nanoparticulate form.

[1] = tested on: Angiogenesis in CAM model; test: Neovascularization on the CAM (chick chorioallantoic membrane model of angiogenesis); assay type: in vivo, chicken; conditions: for CAM data % Inhibition / Percent inhibition of angiogenesis in CAM model at 30 ug: 30 ug; for Percent inhibition of angiogenesis in CAM model at 30 ug: unit assumed
Procedure, shortened: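 Chick CAM of 10-day embryos given filter disks pretreated with cortisone acetate and saturated with bFGF (1 μg/ml) or other pro-angiogenic factors. After 24-48 hr, 10-25 ul test agent was injected intravenously or applied topically. After 3 days at 37° C, vessel branch points under each disk were counted at 50× (8 CAMs/group) and converted to % inhibition relative to positive and negative controls.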

lipid peroxidation = test: Lipid peroxidation inhibition (method of Ohkawa); assay type: biochemical; conditions: for Lipid Peroxidation % Inhibition: 10 uM
[2] = tested on: Human neuroblastoma SKN-SH cells, resistant to doxorubicin; test: Chemoresistance: cancer cell viability (MTT) in presence or absence of doxorubicin; assay type: cell-based; conditions: for Mean OD (×10^−3), cancer cell viability: compound 50 ug/mL, MTT
Procedure, shortened: (§1)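 Doxorubicin-resistant SKN-SH neuroblastoma cells, selected by stepwise exposure to 10^−9–10^−6 M doxorubicin over 3 months, in DMEM/10% FBS at 37 °C. Treated with doxorubicin alone or with hydroxylamine for 72 h (96 h in one variant). MTT read at 570 nm, survival relative to untreated cells.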

[3] = tested on: Human neuroblastoma SKN-SH cells; test: as above; assay type: cell-based; conditions: compound alone; P<0.001
Procedure, shortened: as §1

[4] = Ocular permeability and retinal levels after topical administration; assay type: in vivo
[5] = tested on: bFGF (FGF2) stimulated angiogenesis in CAM model; test: Angiogenesis in the CAM model using bFGF stimulus; assay type: in vivo, chicken; conditions: FGF2 (1 ug) + 30 ug injected
Experimental: The number of vessel branch points contained in a circular region equal to the area of a filter disk was counted for each section. Percent inhibition data are expressed as the quotient of the experimental value minus the negative control value divided by the difference between the positive control value and the negative control value. One image was counted in each CAM preparation, and findings from eight CAM preparations were analyzed for each treatment condition. In addition, each experiment was performed three times. The resulting angiogenesis index is the mean ± SEM (Standard Error of Measurement) of new branch points in each set of treatment. Statistical analysis of blood vessel branching patterns are performed by 1-way analysis of variance (ANOVA) comparing experimental with corresponding control groups. Statistical significance differences are assessed at P value of <0.05.
Assessment of Angiogenesis in the CAM Model Using bFGF Stimulus.
The CAM model protocol was modified to include stimulus with bFGF. The effect of injected OT 551 was assayed.

Molecule	Percent inhibition of angiogenesis in CAM model at 30 ug [1] [%]	% Lipid Peroxidation inhibition (at 1 uM) (lipid peroxidation) [%]	Lipid Peroxidation % Inhibition (lipid peroxidation) [%]	melting point	Mean OD (×10^−3), cancer cell viability ([2]; Dox. 10^−6 M present (+))	Mean OD (×10^−3), cancer cell viability ([2]; Dox. absent (−))	further results
1-hydroxyl-4-(4-(2,2,6,6-tetramethylpiperidin-1-hydroxyl-4-yloxy)-1,2,5-thiadiazol-3-yloxy)-2,2,6,6-tetramethylpiperidine [Compound 14]	75.1	88.6	95.2				Mean Percent Inhibition of TNF-alpha using 5 ng/mL LPS (TNF-alpha; compound 10 uM, 5 ng/mL LPS): 63 ± 1%; IC50 (TNF-alpha; read-out: TNFalpha IC50): 11.4 µM; CAM data % Inhibition [1]: 95.2%
CC(=O)NC1CC(C)(C)N(O)C(C)(C)C1.Cl [Compound 2, 1-hydroxy-4-acetamido-2,2,6,6-tetramethylpiperidine]	76		81.0	180.5 °C (dec.)	249.25 ×10^−3	496.33 ×10^−3	
CC1(C)CC(Oc2nsnc2N2CCOCC2)CC(C)(C)N1O.Cl [Compound 4, 4-(4-(2,2,6,6-tetramethylpiperidin-1-hydroxyl-4-yloxy)-1,2,5-thiazol-3-yl)morpholine]	92.8	87.0	91.4		88.00 ×10^−3	468.50 ×10^−3	killing of doxorubicin-sensitive cells [3]: enhanced the killing; reversal of drug resistance ([2]; combined with doxorubicin, osteosarcoma, breast cancer, and neuroblastoma): strong ability to reverse drug resistance; killing of doxorubicin-resistant cells ([2]; compound alone, P<0.001): enhanced the killing
CC1(C)CC(=O)CC(C)(C)N1O [Compound 5, 1-Hydroxy-2,2,6,6-tetramethyl-piperidin-4-one]		71.0	86.3		245.50 ×10^−3	556.50 ×10^−3	inhibition at 10 µM (TNF-alpha; Homo sapiens, THP-1, read-out: Mean Percent Inhibition of TNF-alpha using 5 ng/mL LPS): 66 ± 7%; IC50 (TNF-alpha; Homo sapiens, THP-1, read-out: TNFalpha IC50 (uM)): 22.2 µM
CC1C(O)C(C)C(C)(C)N(O)C1(C)C.Cl (centres unmarked) [Compound 6, 2,2,3,5,6,6-Hexamethyl-piperidine-1,4-diol]	40.4	70.5	89.0	191.5 °C (dec.)	185.25 ×10^−3	367.00 ×10^−3	
CC1(C)CC(NC(=O)N2CCOCC2)CC(C)(C)N1O.Cl [Compound 11, N-(2,2,6,6-tetramethylpiperidin-1-hydroxyl-4-yl)morpholine-4-carboxamide]	71		82.7	158.1 °C (dec.)	267.25 ×10^−3	470.25 ×10^−3	
CC1(C)c2ccc(C(=O)O)cc2C(C)(C)N1O.Cl [Compound 15, 1,1,3,3-tetramethylisoindolin-2-hydroxyl-5-carboxylic acid]	71.8	88.0	94.6	225.5 °C (dec.)			
CC1(C)COCC(C)(C)N1O.Cl [Compound 20, 3,3,5,5-1-hydroxy-tetramethylmorpholine]	78.6		90.2	184.6 °C (dec.)	107.5 ×10^−3	515.50 ×10^−3	
CC1(C)C=C(C(N)=O)C(C)(C)N1O [Compound 23, 2,5-dihydro-2,2,5,5-tetramethyl-1H-pyrrole-3-carboxamide-1-hydroxy]	48.8				416.25 ×10^−3	1432.50 ×10^−3	IC50 (TNF-alpha; read-out: TNFalpha IC50): 87.4 µM
CC1(C)CC(Oc2nsnc2C#N)CC(C)(C)N1O [Compound 45]	50	91.5			276.50 ×10^−3	1063.33 ×10^−3	
Cc1nsnc1OCC1=CC(C)(C)N(O)C1(C)C [Compound 47, 3-((1-hydroxy-2,5-dihydro-2,2,5,5-tetramethyl-1H-pyrrol-3-yl)methoxy)-4-methyl-1,2,5-thiadiazole]		60.3			261.00 ×10^−3	1168.33 ×10^−3	IC50 (TNF-alpha; Homo sapiens, THP-1, read-out: TNFalpha IC50): ≥ 100 µM
CC1(C)CC(OC(=O)C2CC2)CC(C)(C)N1O.Cl [OT-551 HCl]							Mean Percent Inhibition of TNF-alpha using 5 ng/mL LPS (TNF-alpha; compound 10 uM, 5 ng/mL LPS): 68 ± 6%; CAM data % Inhibition [1]: 75.2 ± 9.7% and 79.6 ± 7.9% and 74 ± 4%; levels in the retina ([4]; after topical administration): good levels; permeability through the cornea ([4]; in vivo): good permeability; % Inhibition ± SEM [5]: 74 ± 4%; Branch pts ± SEM [5]: 87 ± 3
CC1(C)CC(O)CC(C)(C)N1O [TEMPOL-H, 2,2,6,6-tetramethylpiperidine-1,4-diol, reference compound]							inhibition at 10 µM (TNF-alpha; Homo sapiens, THP-1, compound 10 uM, 5 ng/mL LPS, read-out: Mean Percent Inhibition of TNF-alpha using 5 ng/mL LPS): 74 ± 8%; effect of H2O2 in the CAM model ([1]; H2O2 induced angiogenesis, FIG. 1): dose dependent effect
